One data set relates to Pimephales promelas. As to conditions: chronic/long-term; duration: 36 days; growth.
The next data set has as its system Daphnia magna. As to conditions: chronic/long-term; duration: 21 days; reproduction.
The subject of the next data set is Aphidius rhopalosiphi. To be noted: chronic/long-term.
Another data set concerns Apis mellifera. To be noted: acute; duration: 48 hours; dermal; mortality.
For a further data set, the system named is Lepomis macrochirus. To be noted: acute; duration: 96 hours; mortality.
Another data set deals with Typhlodromus pyri. To be noted: chronic/long-term.

A word on the NOAEL: it is the highest dose or exposure tested at which no adverse effect was seen.

On to `O=C(NC(=O)c1ccccc1Cl)Nc1ccc(OC(F)(F)F)cc1` [Triflumuron], for which the NOEC with Pimephales promelas is ≥ 0.0228 mg/L; with Daphnia magna, 3.2e-05 mg/L; in the data set with Anas platyrhynchos (reproductive) it was 6.9 mg/kg-day; with Colinus virginianus (reproduction developmental), 1.65 mg/kg-day; in the data set on Tagia sp. (chronic/long-term, duration: 56 days, reproduction), > 378 mg/kg. Moreover, the LEL with Aphidius rhopalosiphi (mortality) amounted to 300 g/ha; in the data set on Aphidius rhopalosiphi (reproduction), 300 g/ha; with Typhlodromus pyri (duration: 7 days, mortality), 384 g/ha; with Typhlodromus pyri (reproduction), 384 g/ha. Moreover, the LC50 was 180 mg/kg-day in the data set with Anas platyrhynchos (short-term, oral, feed, mortality); > 805 mg/kg-day with Colinus virginianus (acute, oral, diet, mortality); > 0.0208 µg/mL with Lepomis macrochirus; > 500 mg/kg in the data set on Tagia sp. (acute, duration: 14 days, mortality). The LD50 was 561 mg/kg-day in the data set with Colinus virginianus (acute, oral, mortality); > 200 µg/piece in the data set with Apis mellifera; > 5000 mg/kg-day in the data set with Rattus norvegicus (acute, oral, mortality). Also, the NOEL in the data set on Rattus norvegicus (chronic) came to 142 mg/kg-day. Besides, the NOAEL with Rattus norvegicus (chronic, duration: 2 years, hematological) came to 0.82 mg/kg-day; with Rattus norvegicus (subchronic, duration: 90 days, oral, hematological), 3.6 mg/kg-day.
The compound `Nc1ccc(OC(F)(F)F)cc1` [4-Trifluoromethoxyaniline] gave an NOAEL in the data set with Rattus norvegicus (short-term, duration: 6 days) of 0.5 mg/kg-day.

For the origin of these results see EPA's ToxValDB 9.5 (doi:10.2903/j.efsa.2011.1941).
